Key:
[1] = tested on: frontalem Kortex, Hippokampus, Striatum und Formatio Reticularis abgeleiteten Feldpotentiale; assay: Tele-Stereo-EEG: changes of EEG frequencies in freely moving rats after i.p. administration; format: in vivo, Fischer-344 Ratten; conditions: for Veränderungen der EEG-Frequenzen: i.p., 40 bis 100 mg/kg, rat, significant at least at P < 5 %-Level
Procedure: Testverfahren 1 ((Tele-Stereo-EEG)
Die Veränderungen der EEG-Frequenzen nach Gabe von Salzlösung (Kontrolle) bzw. einer Dosis von Tiaprid (40 bis 100 mg/kg Körpergewicht) wurden bestimmt.
Der Stecker diente der Aufnahme eines 4-Kanal-Senders zur telemetrischen Übertragung der aus frontalem Kortex, Hippokampus, Striatum und Formatio Reticularis abgeleiteten Feldpotentiale. Die Signale wurden auf einem Computer System (Software "EEG-Analyse", Betriebsystem OS Science, Laborrechner "LabTeam" der Firma MediSyst, Linden DE) in Echtzeit einer Fast-Fourier-Transformation unterworfen und die Leistungsdichtespektren jeweils über 15 bis 60 Minuten gemittelt. Die Unterteilung der Spektren in 6 verschiedene Frequenzbereiche erlaubte die Erfassung pharmakospezifischer Veränderungen in Bezug auf die jeweils vor der Applikation gemessenen Vorwerte innerhalb dieser Frequenzbänder.
Zum Applikationsprotokoll der Substanzen: Die Substanzen wurden i.p. 45 Minuten nach Beginn der Messungen (Vorwert) injiziert. Fünf Minuten später wurden die Messungen wieder gestartet, mindestens über die nächsten 5 Stunden kontinuierlich analysiert und in 15-minütigen Perioden zusammengefasst. Die Testsubstanz wurde in einer Dosierung von 40 bis 100 mg/kg appliziert. Die experimentelle Serie wurde mit der Injektion von Salzlösung (Kontrolle) begonnen.
Die beobachteten Frequenzänderungen wurden mittels einer Diskriminanzanalyse mit den Ergebnissen mit herkömmlichen antidepressiv wirkenden Arzneimitteln sowie Arzneimitteln für andere Indikationen verglichen. Es wurden folgende Arzneimittel verwendet: 100 mg/kg Tiaprid (Tiapr), 2 mg/kg Paroxetin (Parox), 10 mg/kg Imipramin (Imip), 10 mg/kg Amitryptilin (Amit), 1 mg/kg Nomifensin (Nomi), 0.5 mg/kg Midazolam (Midaz), 60 mg/kg Phenobarbital (Pheno), 60 mg/kg Meprobamat (Meprob), 0.5 mg/kg Chlorpromazin (Chlorp), 0,25 mg/kg Haloperidol (Halop), 1 mg/kg Prothipendyl (Prothi), 10 mg/kg Thioridazin (Thior), 15 mg/kg Carbamazepin (Carba), 75 mg/kg Valproinsäure (Valpr), 6 mg/kg Phenytoin (Pheny). Des weiteren wurden geprüft: 1,3 Vol.-% Halothan (Haloth), 100 mg/kg Propofol (Propo), 1,0 Vol.-% Isofluran (Isofl), 4,5 Vol.-% Desfluran (Desfl), 1,8 Vol.-% Sevofluran (Sevofl) und 1,7 Vol.-% Enfluran (Enfl). Die Ergebnisse sind in Fig. 2 dargestellt.

[2] = tested on: Pyramidenzellen im Hippokampus-Schnittpräparat der Ratte; assay: Long-term potentiation in the hippocampus slice preparation in vitro; parameters: species or system CD-Ratten
Procedure: Testmethode 2 (Langzeitpotenzierung im Hippokampus-Schnittpräparat in vitro)
Die Wirkung von Tiaprid auf die Langzeitpotenzierung der Pyramidenzellen im Hippokampus-Schnittpräparat der Ratte wurde bestimmt.
Für die Durchführung dieser Studie wurden 15 erwachsene männliche CD-Ratten verwendet. Die Isolation des Hippokampus erfolgte an äthernarkotisierten und anschließend exsanguinierten Tieren. In Phosphat-gepufferter Salzlösung (NaCl: 124 mM; KCl: 5 mM; CaCl2: 2 mM; MgSO4: 2 mM; NaH2PO4: 1,25 mM; NaHCO3: 26 mM; Glucose: 10 mM; Kontroll-Lösung: künstliche Zerebral-Spinal-Flüssigkeit (ASCF, artificial cerebral spinal fluid); alle von der Firma Roth, Karlsruhe DE) wurde der mittlere Teil des Hippokampus mit Hilfe eines Schnellklebers aufgeblockt und mit einem Vibratom (Rhema Labortechnik) in 400 µm dicke Scheiben geschnitten. Die Aufbewahrung dieses Hippokampusschnittes erfolgte für mindestens 1 Stunde vor Versuchsbeginn (siehe S.J. Schiff, G.G. Somjen "The Effects of Temperature on Synaptic Transmission in Hippocampal Tissue Slices" Brain Research (1985), 345, 279-284) in einer mit Carbogen durchperlten Inkubationskammer.
Das Experiment selbst wurde in einer sog. "Base Unit mit Haas Top" (Firma Medical Systems Corp.) bei 35°C durchgeführt. Der mit Hilfe peristaltischer Pumpen (Infusomat, B. Braun Melsungen AG) superfundierte Hippokampusschnitt lag auf einem Stück Gaze. […]

D2/D3 Dopaminrezeptoren = conditions: from the literature (Scatton et al., Eur Psychiatry 2001); cited from earlier work

In the case of `CCN(CC)CCNC(=O)c1cc(S(C)(=O)=O)ccc1OC` [Tiaprid, N-2-(Diethylaminoethyl)-5-methylsulfonyl-2-methoxybenzamide], the “Muster der EEG-Frequenzänderungen ("Fingerprint", Diskriminanzanalyse)” value ([1]; discriminant analysis against antidepressants and drugs for other indications, 100 mg/kg Tiaprid) is reported as “korrelieren in signifikanter Weise mit den Mustern, die für andere antidepressive Arzneimittel kennzeichnend sind”, the “Veränderungen der EEG-Frequenzen” value ([1]; first hour after administration) is reported as “Abfall bei allen Frequenzen” and the “Veränderungen der elektrischen Gehirnaktivität” value ([1]; i.p. single dose, compared with saline (0,9 % NaCl-Lösung), all brain areas, all frequencies) is reported as “statistisch signifikantes Niveau im Vergleich zu Salzlösung”. For the same molecule, the “Veränderungen der EEG-Frequenzen” value ([1]; next (second) hour after administration) was “im Hippokampus und Striatum Theta- und Alpha2-Wellen nicht mehr so stark vermindert”, the “Amplitude der Populationsspikes” value ([2]; Tiaprid added to superfusion fluid, 2 concentrations, rat hippocampus slice, 35°C, N = 6 slices) was “konzentrationsabhängig zu einer deutlichen Abnahme der Amplitude der Populationsspikes” and the Langzeitpotenzierung ([2]; rat hippocampus slice in vitro, tetanic stimulus) was “Unterdrückung der "Langzeitpotenzierung"”. For the same molecule, the Rezeptor-Bindungsprofil (D2/D3 Dopaminrezeptoren) was “selektive Blockade von D2/D3 Dopaminrezeptoren”.

Reference: patent publication EP1380292A1, “Tiaprid for the treatment of depressions” (Mewicon med. wiss. Beratung GmbH, priority 2002, dated 2004)
